Measurements as given in US5198461A, “Isatine derivatives, their preparation and use” (NeuroSearch A/S, priority 1989, dated 1993).

Experiments:
[1] = molecular target: 3H-kainate, 3H-AMPA and/or 3H-glycine binding sites; experiment: Kainate, quisqualate (3H-AMPA) and glycine binding assays; settings: site(s) not specified per compound ('and/or')
Method: The quisqualate binding assay was performed as described by T. Honore et al., Neuroscience Letters 54, 27-32 (1985).
The kainate binding assay was performed as described by T. Honore et al., Neuroscience Letters 65, 47-52 (1986).
The glycine binding assay was performed as described by W. Frost White et al., Journal of Neurochemistry 53(2), 503-512 (1989).

[2] = test system: quisqualate-induced clonic seizures in male DBA/2 mice; experiment: Quisqualate-induced clonic seizures; assay type: in vivo; settings: Mus musculus, iv, quisqualate icv, test compound i.v. 5 min before, given as 'quisqualate or NMDA-induced convulsions', read-out: ED50, inhibition of quisqualate-induced convulsions
Method: Quisqualate given icv (intracerebroventricular) to DBA/2 mice induces clonic seizures which can be inhibited by both NMDA and non-NMDA receptor antagonists after i.v. administration.
Test compound was given i.v. 5 min before a 20 pg icv administration of quisqualate to 10 male DBA/2 mice (weighing 10-12 g) per dose. The number of mice experiencing clonic seizures within the next 2 min was noted. An ED50 value was calculated as the dose inhibiting 50% of the mice from having clonic seizures.

[3] = test system: ATPA-induced rigidity in female NMRI mice; experiment: ATPA-induced rigidity; assay type: in vivo; settings: Mus musculus, 15 mg/kg ATPA i.v., test compound i.v. or p.o., read-out: ED50, inhibition of ATPA-induced rigidity
Method: The selective quisqualate receptor agonist ATPA induces rigidity in female NMRI mice at doses between 3 and 15 mg/kg and clonic-tonic seizures and death, probably due to respiratory arrest, at doses between 15 and 40 mg/kg after intravenous (i.v.) administration.
ATPA ((RS)-α-amino-3-hydroxy-5-tert-butyl-4-isoxazolepropionic acid) was dissolved in distilled water and test compound was dissolved in a polyoxyl 40 hydrogenated castor oil (5% Cremophor RH™ 40 (BASF)).
Test compound was administered either i.v. 5, 30 or 120 min before or p.o. 30 min before an i.v. administration of 15 mg/kg of ATPA to 8 female NMRI mice per dose and the number of mice experiencing rigidity 5 min later was noted. An ED50 value was calculated from at least three doses of test compound as the dose inhibiting 50% of the mice from having rigidity.

[4] = test system: NMDA-induced clonic seizures in male NMRI mice; experiment: NMDA-induced clonic seizures; assay type: in vivo; settings: Mus musculus, iv, NMDA icv, test compound i.v. 5 min before, given as 'quisqualate or NMDA-induced convulsions', read-out: ED50, inhibition of NMDA-induced convulsions
Method: NMDA give icv to NMRI mice induces clonic seizures which can be inhibited by NMDA receptor antagonists.
Test compound was given i.v. 5 min before a 0.5 μg icv administration of NMDA to 10 male NMRI mice per dose. The number of mice experiencing clonic seizures within the next 2 min was noted. An ED50 value was calculated as the dose inhibiting 50% of the mice from having clonic seizures.

[5] = test system: cocaine-induced hypermotility in female NMRI mice; experiment: Cocaine-induced hypermotility; assay type: in vivo; settings: Mus musculus, po, administered orally, 25 mg/kg cocaine i.p., read-out: ED50, antagonism of cocaine-induced hypermotility
From the text: Quisqualate and kainate administered locally induce an increase in dopamine release in nucleus accumbens and nucleus caudatus accompanied by stereotype behaviour such as hyperlocomotion, rearing, sniffing and grooming. These effects can be inhibited by selective quisqualate antagonists administered locally by the micro-dialyses method.
Also the dopamine uptake inhibitor cocaine administered s.c. induce hypermotility which can be inhibited by an administration of the glutamate antagonist GDEE into nucleus accumbens.
Test compound was administered orally at doses of 0.1, 1, 10 and 30 mg/kg 30 min before the administration of 25 mg/kg cocaine i.p. to female NMRI mice and the locomotor activity of 2 mice per box was measured for the next 2 hours by use of 8 infrared photobeams per box. The mice had been adapted to the box for at least 16 hours to avoid exploratory motility (neophobia).

Row | Compound | IC50 [1] [µM] | other results
1 | O=C1Nc2c(ccc3ccccc23)C1=NO [1H-benz[g]indole-2,3-dione-3-oxime] | 10 to 100 | –
2 | CCOC(=O)CN1C(=O)C(=NOC)c2cc([N+](=O)[O-])cc([N+](=O)[O-])c21 [5,7-dinitro-1-(ethoxycarbonylmethyl)-1H-indole-2,3-dione-3-(O-methyloxime)] | – | ED50 [2]: 0.1 to 10 mg/kg; ED50 [3]: 0.1 to 10 mg/kg; ED50 [4]: 0.1 to 10 mg/kg
3 | CON=C1C(=O)N(C)c2c1cc([N+](=O)[O-])cc2[N+](=O)[O-] [5,7-dinitro-1-methyl-1H-indole-2,3-dione-3-(O-methyloxime)] | – | ED50 [2]: 0.1 to 10 mg/kg; ED50 [3]: 0.1 to 10 mg/kg; ED50 [4]: 0.1 to 10 mg/kg; ED50 [5]: 0.5 to 1 mg/kg
4 | CN1C(=O)C(=NO)c2cc([N+](=O)[O-])cc([N+](=O)[O-])c21 [5,7-dinitro-1-methyl-1H-indole-2,3-dione-3-oxime] | 10 to 100 | –
5 | O=C1Nc2c(cc([N+](=O)[O-])cc2[N+](=O)[O-])C1=NO [5,7-dinitro-1H-indole-2,3-dione-3-oxime] | 10 to 100 | –
6 | CNS(=O)(=O)c1cc2c(c3c1CCCC3)NC(=O)C2=NO [5-(N-methylsulphamoyl)-6,7,8,9-tetrahydro-1H-benz[g]indole-2,3-dione-3-oxime] | 10 to 100 | –
7 | O=C1Nc2c(cc(S(=O)(=O)NOCc3ccccc3)c3c2CCCC3)C1=NO [5-(benzyloxysulphamoyl)-6,7,8,9-tetrahydro-1H-benz[g]indole-2,3-dione-3-oxime] | 10 to 100 | –
8 | O=C1Nc2c(cc(Br)cc2[N+](=O)[O-])C1=NO [5-bromo-7-nitro-1H-indole-2,3-dione-3-oxime] | 10 to 100 | –
9 | O=C1Nc2c(cc([N+](=O)[O-])c3c2CCCC3)C1=NO [5-nitro-1H-6,7,8,9-tetrahydro-benz[g]indole-2,3-dione-3-oxime] | 10 to 100 | –
10 | O=C1Nc2c(cc([N+](=O)[O-])c3ccccc23)C1=NO [5-nitro-1H-benz[g]indole-2,3-dione-3-oxime] | 10 to 100 | –
11 | O=C1Nc2ccc([N+](=O)[O-])cc2C1=NO [5-nitro-1H-indole-2,3-dione-3-oxime] | 10 to 100 | –
